Results: patent US6114326A, “Use of cabergoline in the treatment of restless legs syndrome” (priority 1999, dated 2000)
“Also recorded” adds a separate entry of the source.

Assays:
[1] = test system: restless legs syndrome patients; assay: Polysomnography in 12-week open label pilot trial of single evening cabergoline dose in RLS; type: in vivo
Experimental: Cabergoline in RLS, ENS, Nice, Abstract.
Efficacy was assessed by polysomnography and subjective ratings.
(§1) Following a 2-week baseline period, all patients were treated with cabergoline in an open trial for 12 weeks. Apart from levodopa, patients had to stop taking any medication known to have positive or negative effect on RLS two weeks before baseline (i.e., other dopamine agonists, benzodiazepines, opioids or other psychotropic agents). Patients who were on levodopa therapy were allowed to either stop levodopa prior to study entry or to continue, taper or discontinue levodopa during the study. To prevent well known peripheral dopaminergic side-effects such as nausea, vomiting, vertigo and arterial hypotension domperidone (not available in the United States) was comedicated initially and also tapered if possible. […] Neurological case history, examination, electrocardiogramm, chest x-ray and polysomnography were performed to ensure that selection criteria were fulfilled. A two-night PSG (including one night of adaptation) was performed to evaluate the diagnosis and inclusion/exclusion criteria regardless if patients were on or off levodopa. After a 12-week treatment period patients were studied again for one night in the sleep laboratory. Subjective ratings were obtained at baseline, week 4, week 8 and at the endpoint after 12 weeks. In addition patients were monitored by phone calls to note any adverse events and to determine whether to increase the dosage of the study drug, to decrease levodopa and to decrease domperidone. The time schedule of phone calls was variable and the frequency mostly dependent on the presence of simultaneous levodopa therapy.
Inclusion criteria. Patients were included if they fulfilled the minimal diagnostic criteria according to the International RLS Study Group. After rating clinical symptoms at baseline, patients were referred to polysomnography without any RLS specific treatment other than levodopa. Patients were included if they had more than five PLM per hour of time-in-bed (PLM index) and a sleep efficiency index (total sleep time per hour time-in-bed) of less than 85%.
Exclusion criteria. Patients with signs of any other sleep disorder on PSG, especially sleep apnea syndrome (respiratory disturbances index >5 per hour total sleep time), were excluded. Subjects receiving neuroleptic, antidepressant or other psychotropic medications or with any severe additional illness (with special consideration to pulmonary fibrosis) or drug abuse were also excluded. Patients with established or suspected hypersensitivity to ergot derivates and patients with clinical significant change in routine laboratory studies were not included. Pregnant or lactating women or women without safe contraception were not allowed to participate in this study.
Dosing. Study medication was available in tablets containing 0.5 mg, 1 mg or 2 mg Cabergoline (Cabaseril®, Pharmacia & Upjohn, Erlangen, Germany). Medication was taken 2 hours prior to bedtime. Initial therapy consisted of one 0.5 mg tablet. […] The increased dose could be decreased again if necessary. All patients were initially comedicated with domperidone 20 mg t.i.d. which could be tapered and stopped if possible. Subjects who were pretreated with levodopa were asked to decrease levodopa simultaneously if possible.
Polysomnographic studies. At baseline and at the study end after 12 weeks PSG recordings were performed for one night (11 p.m.-7 a.m.) to evaluate inclusion/exclusion criteria and to obtain primary and secondary efficacy parameters. Studies included monitoring of electroencephalogram (EEG) (C3-A2, C4-A1), electrooculogram, chin EMG, EMG of both anterior tibialis muscles and electrocardiogram (ECG). PSG methods used standard procedures such as Pollmacher and Schultz. At baseline respiration, oronasal airflow, respiration effort and oxygen saturation were monitored by standard methods. Sleep scoring was also done by methods. […]

[2] = test system: restless legs syndrome patients; assay: Physician's rating (CGI) in 12-week open label trial; type: in vivo
Experimental: as §1
Physician's rating. The physician rated the severity of illness at baseline (normal to extremely ill), the global improvement (general condition very much worse to very much better) and the side effects by use of the Clinical Global Impressions (CGI). Safety. Safety of Cabergoline was assessed to the type and frequency of adverse event, clinically significant changes in laboratory data or ECG and premature discontinuation of study participation. Adverse events were classified as serious versus nonserious and characterized by intensity, relationship to drug treatment, frequency, course and therapeutic intervention.
Statistical analysis. Statistical evaluation was performed as intent-to-treat analysis using descriptive statistics.

[3] = Half-life and duration of action; type: in vivo; conditions: 'here we report'
[4] = test system: restless legs syndrome patients; assay: Safety / adverse events, tolerability, augmentation in 12-week open label trial; type: in vivo; conditions: 6 months or more after treatment, compared with L-Dopa
[5] = cited to Ahlskog et al. 1996; cited from earlier work
D2 family of receptors = conditions: cited from earlier work
[6] = test system: D2 and D3 molecular receptors; conditions: cited from earlier work

For C=CCN1C[C@H](C(=O)N(CCCN(C)C)C(=O)NCC)C[C@@H]2c3cccc4[nH]cc(c34)C[C@H]21 [Cabergoline, 1((6-allylergolin-8β-yl) -carbony.)-1-(3-(dimethylamino)propyl)-3-ethylurea], the “increase in total sleep time” value ([1]; endpoint vs. baseline) was “more than one”, the “reduction of PLM during time in bed, PLM arousals and PLM awakenings (in words)” value ([1]; endpoint vs. baseline) was “significant reduction” and the “sleep efficiency (in words)” value ([1]; endpoint vs. baseline) was “increased”. For the same compound, the “sleep latency (in words)” value ([1]; endpoint vs. baseline) was “shortened”, the “total sleep time (in words)” value ([1]; endpoint vs. baseline) was “prolonged” and the “total number of PLM during time in bed (No. Of PLM)” value ([1]; week 12, cabergoline monotherapy (mean 2.1 mg, single evening dose), baseline 195.8 ± 109.1) was 26.4±40.2. For the same compound, the “number of PLM awakenings” value ([1]; week 12, cabergoline monotherapy, baseline 9.6 ± 4.9) was 1.0±2.0, the PLM arousal index ([1]; week 12, cabergoline monotherapy, baseline 10.4 ± 7.8) was 1.0±1.7 number of PLM arousals per hou and the PLM index ([1]; week 12, cabergoline monotherapy, baseline 27.7 ± 17.1) was 3.6±5.3 number of PLM per hour time in. For the same compound, the “Sleep Latency” value ([1]; week 12, cabergoline monotherapy, baseline 42.4 ± 49.1) was 16.3 ± 22.8 min, the PLM arousals ([1]; week 12, cabergoline monotherapy, baseline 51.7 ± 42.3) was 6.4±11.2 and the Sleep efficiency ([1]; week 12, cabergoline monotherapy, baseline 63.1 ± 10.5) was 79.1±12.5%. For the same compound, the Total sleep time ([1]; week 12, cabergoline monotherapy, baseline 302.7 ± 50.7) was 379.4 ± 59.8 min, the “global improvement (physician's rating, in words)” value ([2]; in vivo) was “significant global improvement” and the “general condition minimally better (physician's rating), number of patients” value ([2]; of 9 patients) was 1. For the same compound, the “general condition much better (physician's rating), number of patients” value ([2]; of 9 patients) was 3, the “general condition very much better (physician's rating), number of patients” value ([2]; of 9 patients) was 5 and the “duration of action (may last)” value [3] was no more than 65 h. The “tolerance to treatment (in words)” value [4] was “low tolerance; also recorded: lack of tolerance”, the duration of action [5] was “at least 24 hours” and the “D2 family agonist activity (in words)” value (D2 family of receptors) was “full D2 family agonist”. The “D2 versus D3 binding (in words)” value [6] was “greater D2 over D3 binding”.
